Each structure is given as a SMILES string.

By IC50 is commonly meant the concentration needed to halve the response being measured. A lower IC50 goes with inhibition by little substance.

Assay [1] addresses human SCD1 (Homo sapiens (Human), UniProt O00767). Nature of the assay: Yeast growth assay, strain expressing human SCD1 as the sole desaturase (reduced growth as surrogate for SCD inhibition). It is filed as cell-based. Conditions: yeast with OLE1 deleted expressing human SCD1 from a plasmid; growth read as OD600 after 40 h at 30° C.; top drug concentration 33.3 μM. The procedure, abridged:
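Yeast lacking OLE1 depend on plasmid-borne human SCD1 or SCD5 and are tested in SD-Ura medium without oleic/palmitoleic acid or Tween.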

Assay [2] has as its target human SCD5 (Homo sapiens (Human), UniProt Q86SK9). Nature of the assay: Yeast growth assay, strain expressing human SCD5 as the sole desaturase (reduced growth as surrogate for SCD inhibition). Conditions: yeast with OLE1 deleted expressing human SCD5 from a plasmid; growth read as OD600 after 40 h at 30° C.; top drug concentration 33.3 μM. The class given is cell-based. The procedure: Strains expressing SCD1 or SCD5 as the sole desaturase, the human SCD1 and SCD5 genes were used to evaluate inhibition of SCD1/SCD5 using reduced growth as a surrogate for SCD inhibition. These yeast strains express human SCD1 or SCD5 from a plasmid harbored in a strain in which the yeast OLE1 gene is deleted.
All compound profiling experiments were performed using the same basic protocol. Yeast were cultured using standard techniques in complete synthetic media lacking uracil and containing yeast nitrogen base supplemented with 2% (w/v) glucose (SD-Ura) Starter cultures were inoculated in 3 mL SD-Ura media containing 0.01% tween and 0.2 mM palmitoleic and oleic acid. Cultures were incubated overnight in a 30° C. shaker incubator (225 rpm). Saturated morning cultures were centrifuged, washed in SD-Ura media lacking TWEEN-20 and fatty acids, and then diluted 1:20 in fresh SD-Ura media also lacking TWEEN-20 and fatty acids.
Compound administration was performed in two separate steps. First, 15 μL of SD-Ura was dispensed into clear 384-well assay plates using a MULTIDROP™ Combi reagent dispenser. […] The cultures described above were centrifuged and washed with media lacking TWEEN-20 or oleic and palmitoleic acids.
After yeast delivery, assay plates were incubated under humidified conditions at 30° C. for 40 h. Yeast growth was monitored by reading the OD600 of each well using a microplate reader (Perkin Elmer EnVision™).

Sequence of human SCD5 (Q86SK9 whole entry): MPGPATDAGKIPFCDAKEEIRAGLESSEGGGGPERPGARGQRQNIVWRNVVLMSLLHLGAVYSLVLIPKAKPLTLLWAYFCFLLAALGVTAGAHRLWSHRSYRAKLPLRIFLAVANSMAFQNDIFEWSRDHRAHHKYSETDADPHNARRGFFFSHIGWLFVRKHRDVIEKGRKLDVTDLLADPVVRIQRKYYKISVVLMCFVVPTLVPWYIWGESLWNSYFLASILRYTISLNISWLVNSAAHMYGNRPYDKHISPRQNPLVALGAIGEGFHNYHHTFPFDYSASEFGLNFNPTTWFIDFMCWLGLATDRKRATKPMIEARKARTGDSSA
Sequence of human SCD1 (O00767 whole entry): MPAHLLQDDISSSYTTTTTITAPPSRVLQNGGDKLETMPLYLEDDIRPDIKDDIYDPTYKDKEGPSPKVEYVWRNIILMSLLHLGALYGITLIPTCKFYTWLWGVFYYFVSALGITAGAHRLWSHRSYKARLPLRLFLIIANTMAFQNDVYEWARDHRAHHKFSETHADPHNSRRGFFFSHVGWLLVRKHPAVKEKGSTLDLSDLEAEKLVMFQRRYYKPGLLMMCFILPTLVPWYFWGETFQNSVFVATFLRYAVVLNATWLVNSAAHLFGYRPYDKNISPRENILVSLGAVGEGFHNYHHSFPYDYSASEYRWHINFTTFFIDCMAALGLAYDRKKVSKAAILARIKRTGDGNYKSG

Take `O=C(c1cc(-c2ccc3c(c2)OCO3)on1)N1CCCC1c1ccncc1` (centres unmarked) [Compound 363]: the IC50 in assay [1] and in assay [2] was > 45 µM each time.

Regarding `C=C(C)c1cc(C(=O)N2CCC3(CCc4c(F)cccc4O3)CC2)no1` [Compound 324], the results for the IC50 in assay [1] and in assay [2] were > 45 µM and 3.8 µM, respectively.

In the case of `O=C(c1cc(-c2ccco2)on1)N1CC2(CCCC2)C1` [Compound 245], the IC50 in assay [1] and in assay [2] was > 45 µM in each case.

As to `N#Cc1ccc(Cn2cc(NC(=O)c3cc(-c4ccccc4)on3)cn2)s1` [Compound 43], the IC50 in assay [1] and in assay [2] was > 45 µM throughout.

Regarding `CC(C)(C)OC(=O)Nc1cc(C(=O)Nc2cnn(Cc3ccccc3)c2)no1` [Compound 181], the IC50 was 5.8 µM in assay [1] and > 45 µM in assay [2].

Take `COc1cc(F)ccc1C1CCCN1C(=O)c1cc(-c2ccc3c(c2)OCO3)on1` (centres unmarked) [Compound 430]: the values for the IC50 in assay [1] and in assay [2] were > 45 µM and 30 µM, respectively.

Take `CC(C)c1cc(C(=O)N2CCC(c3ccccc3)C2)no1` (centres unmarked) [Compound 349]: the IC50 in assay [1] and in assay [2] was > 45 µM in each case.

As for `O=C(Nc1cnnc(Oc2ccccc2)c1)c1cc(-c2ccccc2)on1` [Compound 311], the IC50 in assay [1] and in assay [2] was > 45 µM throughout.

In the case of `O=C(Nc1cnn(CCc2ccccc2)c1)c1cc(-c2ccco2)on1` [Compound 24], the IC50 in assay [1] and in assay [2] was > 45 µM each time.

With `N#Cc1ccc2c(C(=O)N3CCC[C@H]3c3ccccc3)noc2c1` [Compound 456], the IC50 in assay [1] and in assay [2] was > 45 µM each time.

As to `O=C(c1cc(-c2ccccc2)on1)N1CCC(O)(c2ccccc2)CC1` [Compound 296], the IC50 in assay [1] and in assay [2] was > 45 µM in each case.

As to `N#Cc1ccc(Cn2cc(NC(=O)c3cc(-c4ccccc4)on3)cn2)cc1` [Compound 42], the IC50 in assay [1] and in assay [2] was > 45 µM throughout.

Consider `N#Cc1ccc(CN(C(=O)c2cc(-c3ccccc3)on2)c2cnn(Cc3ccc(C#N)cc3)c2)cc1` [Compound 47], for which the IC50 in assay [1] and in assay [2] was > 45 µM each time.

In the case of `O=C(c1cc(-c2ccncc2)on1)N1CC(c2ccccc2)C1` [Compound 229, (3-phenylazetidin-1-yl)(5-(pyridin-4-yl)isoxazol-3-yl)methanone, trifluoroacetic acid], the half-inhibitory concentration (IC50) in assay [1] is 0.66 µM; in assay [2], 7.17 µM.

Consider `O=C(Nc1cnn(Cc2cc(F)ccc2C(F)(F)F)c1)c1cc(-c2ncccc2F)on1` [Compound 107], for which the IC50 in assay [1] and in assay [2] was > 45 µM throughout.

Take `O=C(c1cc(-c2ccccc2)on1)N1CC2(C1)CN(c1ccccc1)C2` [Compound 209]: the half-maximal inhibitory concentration (IC50) in assay [1] and in assay [2] was > 45 µM throughout.

For the molecule `O=C(c1cc(-c2ccccc2)on1)N1CCN(c2ccc(F)cc2)CC1` [Compound 283], the IC50 in assay [1] and in assay [2] was > 45 µM throughout.

Take `O=C(Nc1cnn(Cc2ccccc2Cl)c1)c1cc(-c2cccc3c2cnn3C2COC2)on1` [Compound 94]: the IC50 in assay [1] and in assay [2] was > 45 µM in each case.

Take `O=C(Nc1cnn(Cc2cccc(F)c2)c1)c1cc(C2(O)CCC2)on1` [Compound 100]: the values for the IC50 in assay [1] and in assay [2] were 3.1 µM and 20 µM, respectively.

Consider `O=C(Nc1cnn(Cc2ccccc2)c1)c1cc(-c2cccc3cnn(C4COC4)c23)on1` [Compound 96], for which the IC50 in assay [1] and in assay [2] was > 45 µM throughout.

Turning to `O=C(c1cc(-c2ccn3ncnc3c2)on1)N1CCC[C@H]1c1ccccc1` [Compound 432], the IC50 in assay [1] is 40 µM; in assay [2], > 45 µM.

For the molecule `O=C(c1cc(-c2ccccn2)on1)N1CC(c2ccccc2)C1` [Compound 233, (3-phenylazetidin-1-yl)(5-(pyridin-2-yl)isoxazol-3-yl)methanone], the figures for the IC50 in assay [1] and in assay [2] were 2.61 µM and 3.12 µM, respectively.

For the origin of these results see US10919885B2, “Compounds and uses thereof” (Yumanity Therapeutics, Inc., priority 2018, dated 2021).
